Reference: US20250145606A1 (Arcus Biosciences, Inc., priority 2023, published 2025)
pIC50: −log10 of the molar value.

Legend:
c-Kit = c-Kit (Homo sapiens (Human), UniProt P10721); test: Inhibition of c-Kit kinase activity (HTRF KinEASE-TK); assay type: biochemical; settings: biochemical, HTRF KinEASE-TK
Procedure, shortened: (§1)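 Phosphorylation of biotinylated TK peptide read by HTRF (665/620 nm ratio) after 120 min at rt, following 1 h enzyme–compound preincubation. ATP (2× mix): 20 μM CSF1R, 16 μM c-Kit, 40 μM PDGFRβ, 1 μM PDGFRα; MgCl2 10 mM except c-Kit 5 mM. 22-point 1:2 titration; four-parameter IC50.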

CSF1R = CSF1R (Homo sapiens (Human), UniProt P07333); test: Inhibition of CSF1R kinase activity (HTRF KinEASE-TK); settings: biochemical, HTRF KinEASE-TK
Procedure, shortened: as §1

[1] = tested on: Phospho-KIT (Y703) in M07e cells; test: Phospho-KIT (Y703) cellular assay in M07e cells; assay type: cell-based; settings: M-07e; Phospho-KIT (Y703), M07e cells; read-out: M07e Cell IC50
Protocol: Phospho-KIT (Y703) Cellular Assay in M07e Cells
The day prior to assay, M07e cells (DSMZ, catalog #ACC 104) were serum starved. Cells were centrifuged and cell pellet resuspended in OptiMEM (Gibco, catalog #31985062) to a density of 1×10^6-2.5×10^6 cells per mL. Cells were then incubated overnight at 5% CO2 and 37° C. in an appropriately sized flask. On the day of the experiment, an 11 point, half log titration of test compound was pre-dispensed into 96-well round bottom polypropylene plates (Corning, catalog #3365). The serum starved M07e cells were centrifuged and resuspended to a cell density of 1×10^6 cells per mL with DPBS (Gibco, catalog #14190-144). Live/Dead Green Fixable viability dye (Invitrogen, catalog #L34970) was added as 1 μL/1 mL of cell suspension. Cells were then incubated in the dark at 4° C. for 30 min. Cells were washed by centrifugation and resuspension with DPBS+0.5% BSA (Gemini Bio Products, catalog #700110/100, 30% BSA solution). Cells were resuspended, separated into two equal volumes and again centrifuged. Cell pellets were resuspended with OptiMEM™ to a cell density of 1×10^6 cells per mL. Cells were then added to the appropriate compound plate at 100,000 cells per well in 100 μL and mixed. Plates were incubated at 5% CO2 and 37° C. for 50 min. Stem Cell Factor, SCF (R&D Systems, #255-SC/CF) was diluted in OptiMEM to 1 μg/mL and added to all wells as 10 μL for a final concentration of 90.9 ng/mL. Plates were incubated at 5% CO2 and 37° C. for 10 min. Incubation was stopped by addition of 110 μL 4% paraformaldehyde solution in PBS (Life Technologies, catalog #J19943.K2). Plates were incubated at rt for at least 15 min. Plates were then centrifuged and supernatant removed by flicking. Cells were washed once by resuspension in 200 μL DPBS+0.5% BSA, centrifuged, and supernatant removed by flicking. Cells were resuspended in 100 μL 1X Permeabilization buffer (Invitrogen, catalog #88882400) and plates incubated at rt for 30 min. Plates were centrifuged, supernatant removed by flicking, and cells resuspended in 50 μL primary antibody, anti-phospho-c-KIT (Tyr703) (Cell Signaling, catalog #3073), diluted to 1 μg/mL with permeabilization buffer. Plates were incubated at rt for 1 h. Plates were centrifuged, supernatant removed, and cells resuspended with 200 μL DPBS+0.5% BSA. Plates were again centrifuged, supernatant removed by flicking, and cells resuspended in 100 μL secondary antibody, goat anti-rabbit AlexaFluor647 (AF647) (Invitrogen, catalog #A21244) diluted to 1 μg/mL with DPBS+0.5% BSA. Plates were incubated at rt for 30 min. followed by centrifugation, supernatant removal, and cell resuspension with 200 μL DPBS+0.5% BSA. Cells were washed again by centrifugation, supernatant removal, and cell resuspension with 200 μL DPBS+0.5% BSA. Samples were then read by flow cytometry. The Forward: Side scatter plot was gated and that population was gated for live cells based on the Live/Dead Green staining. The geometric mean of AF647 of the live cell population was recorded. Percentage maximum activity in each test well was calculated based on DMSO (100% activity) and positive control treated cell wells (0% activity). The potencies (IC50 values) of test compounds were determined using a standard 4-parameter non-linear regression fit.

PDGFRα = PDGFRα (Homo sapiens (Human), UniProt P16234); test: Inhibition of PDGFRα kinase activity (HTRF KinEASE-TK); settings: biochemical, HTRF KinEASE-TK
Procedure, shortened: as §1

PDGFRβ = PDGFRβ (Homo sapiens (Human), UniProt P09619); test: Inhibition of PDGFRβ kinase activity (HTRF KinEASE-TK); settings: biochemical, HTRF KinEASE-TK
Procedure, shortened: as §1

c-Kit, sequence (P10721 26-976): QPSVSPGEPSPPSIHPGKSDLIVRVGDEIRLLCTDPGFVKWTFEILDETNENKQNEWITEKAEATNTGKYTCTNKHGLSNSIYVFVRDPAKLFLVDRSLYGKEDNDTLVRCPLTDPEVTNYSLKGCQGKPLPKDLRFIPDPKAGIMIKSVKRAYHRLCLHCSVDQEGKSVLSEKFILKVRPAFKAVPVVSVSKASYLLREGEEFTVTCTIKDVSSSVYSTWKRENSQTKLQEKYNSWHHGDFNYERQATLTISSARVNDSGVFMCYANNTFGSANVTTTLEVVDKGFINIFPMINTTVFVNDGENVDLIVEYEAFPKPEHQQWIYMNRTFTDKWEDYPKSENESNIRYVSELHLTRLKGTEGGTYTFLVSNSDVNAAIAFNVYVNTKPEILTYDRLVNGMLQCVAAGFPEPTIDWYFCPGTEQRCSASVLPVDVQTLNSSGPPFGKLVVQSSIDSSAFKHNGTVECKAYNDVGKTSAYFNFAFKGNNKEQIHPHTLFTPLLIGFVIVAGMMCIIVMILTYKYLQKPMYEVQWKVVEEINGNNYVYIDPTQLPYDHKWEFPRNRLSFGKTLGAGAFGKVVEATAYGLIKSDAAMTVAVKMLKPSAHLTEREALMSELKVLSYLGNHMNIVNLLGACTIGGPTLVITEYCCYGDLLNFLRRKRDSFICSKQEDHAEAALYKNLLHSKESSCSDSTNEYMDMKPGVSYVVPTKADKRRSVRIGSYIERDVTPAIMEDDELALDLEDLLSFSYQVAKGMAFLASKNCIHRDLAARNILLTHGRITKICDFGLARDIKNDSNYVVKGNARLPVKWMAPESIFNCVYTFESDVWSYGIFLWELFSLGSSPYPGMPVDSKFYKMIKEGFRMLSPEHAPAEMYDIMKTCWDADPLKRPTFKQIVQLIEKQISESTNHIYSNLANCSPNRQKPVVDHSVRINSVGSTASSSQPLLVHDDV
PDGFRβ, sequence (P09619 33-1106): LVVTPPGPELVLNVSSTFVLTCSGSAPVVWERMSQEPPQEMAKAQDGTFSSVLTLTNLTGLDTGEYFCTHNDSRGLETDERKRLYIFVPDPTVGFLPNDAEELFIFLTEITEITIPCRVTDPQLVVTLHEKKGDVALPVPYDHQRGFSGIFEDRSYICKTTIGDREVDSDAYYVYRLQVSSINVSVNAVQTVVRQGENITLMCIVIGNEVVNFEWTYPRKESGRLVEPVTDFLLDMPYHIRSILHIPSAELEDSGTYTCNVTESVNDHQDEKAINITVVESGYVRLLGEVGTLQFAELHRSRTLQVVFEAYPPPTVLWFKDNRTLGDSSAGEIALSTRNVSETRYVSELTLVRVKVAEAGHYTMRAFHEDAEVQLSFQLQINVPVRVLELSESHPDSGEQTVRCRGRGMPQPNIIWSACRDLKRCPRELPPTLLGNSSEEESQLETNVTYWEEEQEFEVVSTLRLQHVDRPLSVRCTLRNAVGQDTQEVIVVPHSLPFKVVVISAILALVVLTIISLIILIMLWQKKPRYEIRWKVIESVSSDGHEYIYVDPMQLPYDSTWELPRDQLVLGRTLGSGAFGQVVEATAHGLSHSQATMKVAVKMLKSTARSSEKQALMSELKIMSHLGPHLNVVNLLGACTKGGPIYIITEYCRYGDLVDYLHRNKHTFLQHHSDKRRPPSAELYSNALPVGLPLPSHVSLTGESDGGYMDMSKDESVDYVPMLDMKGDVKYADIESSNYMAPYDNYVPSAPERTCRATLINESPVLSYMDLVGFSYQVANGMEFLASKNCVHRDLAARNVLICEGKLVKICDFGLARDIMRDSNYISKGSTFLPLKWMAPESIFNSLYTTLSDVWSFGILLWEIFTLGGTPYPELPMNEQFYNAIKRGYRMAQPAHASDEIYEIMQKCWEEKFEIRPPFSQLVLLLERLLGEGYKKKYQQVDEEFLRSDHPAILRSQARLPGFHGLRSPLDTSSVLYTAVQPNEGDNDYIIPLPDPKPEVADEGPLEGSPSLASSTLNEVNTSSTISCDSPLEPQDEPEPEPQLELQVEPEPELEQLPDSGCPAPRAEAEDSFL
CSF1R, sequence (P07333 20-972): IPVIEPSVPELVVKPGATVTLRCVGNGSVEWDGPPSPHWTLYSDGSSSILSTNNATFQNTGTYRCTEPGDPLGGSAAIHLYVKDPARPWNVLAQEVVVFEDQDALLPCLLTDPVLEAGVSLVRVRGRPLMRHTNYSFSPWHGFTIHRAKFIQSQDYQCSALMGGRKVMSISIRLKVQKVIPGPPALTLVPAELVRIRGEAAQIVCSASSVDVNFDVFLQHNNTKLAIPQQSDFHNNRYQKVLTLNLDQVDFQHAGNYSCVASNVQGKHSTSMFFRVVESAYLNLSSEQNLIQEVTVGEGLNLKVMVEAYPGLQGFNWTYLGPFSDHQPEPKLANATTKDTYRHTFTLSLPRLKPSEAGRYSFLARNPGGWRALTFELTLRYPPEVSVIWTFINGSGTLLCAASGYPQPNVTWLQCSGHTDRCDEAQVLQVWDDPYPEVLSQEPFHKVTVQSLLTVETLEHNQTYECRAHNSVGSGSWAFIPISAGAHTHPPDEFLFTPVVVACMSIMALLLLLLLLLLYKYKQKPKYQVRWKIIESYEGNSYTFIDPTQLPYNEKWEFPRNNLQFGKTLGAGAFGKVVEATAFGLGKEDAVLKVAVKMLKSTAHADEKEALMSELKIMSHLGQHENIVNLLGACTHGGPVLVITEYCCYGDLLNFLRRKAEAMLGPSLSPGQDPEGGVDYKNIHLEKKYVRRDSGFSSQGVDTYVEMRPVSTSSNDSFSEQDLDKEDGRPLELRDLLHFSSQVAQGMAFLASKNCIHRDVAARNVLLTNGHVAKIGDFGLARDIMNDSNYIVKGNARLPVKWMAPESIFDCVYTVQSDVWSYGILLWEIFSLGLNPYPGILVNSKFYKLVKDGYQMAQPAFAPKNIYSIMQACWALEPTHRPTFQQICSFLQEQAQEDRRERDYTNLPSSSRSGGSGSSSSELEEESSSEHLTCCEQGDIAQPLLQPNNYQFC
PDGFRα, sequence (P16234 24-1089): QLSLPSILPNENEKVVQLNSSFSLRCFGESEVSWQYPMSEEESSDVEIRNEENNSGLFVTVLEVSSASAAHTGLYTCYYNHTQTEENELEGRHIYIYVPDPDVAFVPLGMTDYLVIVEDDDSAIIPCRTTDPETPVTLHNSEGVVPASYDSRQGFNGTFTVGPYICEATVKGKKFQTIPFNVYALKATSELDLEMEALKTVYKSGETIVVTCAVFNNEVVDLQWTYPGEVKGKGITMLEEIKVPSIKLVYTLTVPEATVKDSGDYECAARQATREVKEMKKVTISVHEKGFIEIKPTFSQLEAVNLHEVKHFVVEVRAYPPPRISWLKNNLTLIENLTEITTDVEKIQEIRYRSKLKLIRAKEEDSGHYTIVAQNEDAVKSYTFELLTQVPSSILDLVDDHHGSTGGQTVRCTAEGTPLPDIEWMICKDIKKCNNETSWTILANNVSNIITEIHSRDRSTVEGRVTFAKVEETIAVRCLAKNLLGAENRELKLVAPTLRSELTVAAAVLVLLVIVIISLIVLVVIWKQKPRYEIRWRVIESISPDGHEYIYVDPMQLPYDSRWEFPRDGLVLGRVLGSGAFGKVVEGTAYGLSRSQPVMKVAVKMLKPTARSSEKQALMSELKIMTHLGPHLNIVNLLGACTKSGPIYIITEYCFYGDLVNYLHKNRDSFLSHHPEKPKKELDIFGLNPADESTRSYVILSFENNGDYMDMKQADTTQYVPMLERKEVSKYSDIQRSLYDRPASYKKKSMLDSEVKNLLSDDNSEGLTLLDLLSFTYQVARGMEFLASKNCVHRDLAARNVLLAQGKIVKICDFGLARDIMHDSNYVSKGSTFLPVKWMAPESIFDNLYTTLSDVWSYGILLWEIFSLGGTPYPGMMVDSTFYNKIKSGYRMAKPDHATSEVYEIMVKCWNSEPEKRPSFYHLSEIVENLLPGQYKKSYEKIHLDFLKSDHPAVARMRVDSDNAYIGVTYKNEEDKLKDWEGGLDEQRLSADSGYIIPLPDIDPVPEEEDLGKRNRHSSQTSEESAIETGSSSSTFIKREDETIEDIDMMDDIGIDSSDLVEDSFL

Row | pIC50 (c-Kit) | pIC50 (CSF1R) | pIC50 [1] | pIC50 (PDGFRα) | pIC50 (PDGFRβ) | Structure (SMILES)
1 | > 7.00 | < 6.00 | > 7.00 | – | – | Cc1ncc(C(=O)Nc2cc(C(=O)Nc3cnc(OC(F)F)cn3)c(F)cc2C)s1 [Example 15, N-[5-[[5-(Difluoromethoxy)pyrazin-2-yl]carbamoyl]-4-fluoro-2-methylphenyl]-2-methyl-1,3-thiazole-5-carboxamide]
2 | 6.00 to 7.00 | – | 6.00 to 7.00 | – | – | Cc1ncc(C(=O)Nc2cc(C(=O)NCc3cccnc3)c(F)cc2C)s1 [Example 12, N-(4-Fluoro-2-methyl-5-((pyridin-3-ylmethyl)carbamoyl)phenyl)-2-methylthiazole-5-carboxamide]
3 | > 7.00 | < 6.00 | > 7.00 | – | – | Cc1ncc(C(=O)Nc2cc(C(=O)Nc3cncc(CC4CC4)n3)c(F)cc2C)s1 [Example 34, N-[5-[[6-(cyclopropylmethyl)pyrazin-2-yl]carbamoyl]-4-fluoro-2-methylphenyl]-2-methyl-1,3-thiazole-5-carboxamide]
4 | > 7.00 | < 6.00 | > 7.00 | – | – | Cc1ncc(C(=O)Nc2cc(C(=O)Nc3cnc(C(C)C)cn3)c(F)cc2C)s1 [Example 28, N-[4-fluoro-2-methyl-5-[(5-propan-2-ylpyrazin-2-yl)carbamoyl]phenyl]-2-methyl-1,3-thiazole-5-carboxamide]
5 | > 7.00 | < 6.00 | > 7.00 | – | – | Cc1ncc(C(=O)Nc2cc(C(=O)Nc3ccnc(OC(F)F)c3)c(F)cc2C)s1 [Example 21, N-[5-[[2-(Difluoromethoxy)pyridin-4-yl]carbamoyl]-4-fluoro-2-methylphenyl]-2-methyl-1,3-thiazole-5-carboxamide]
6 | > 7.00 | > 7.00 | > 7.00 | – | – | Cc1cc(F)c(C(=O)Nc2cncc(C(F)F)c2)cc1NC(=O)c1cnc(N)s1 [Example 246, 2-Amino-N-[5-[[5-(difluoromethyl)pyridin-3-yl]carbamoyl]-4-fluoro-2-methylphenyl]-1,3-thiazole-5-carboxamide]
7 | > 7.00 | < 6.00 | 6.00 to 7.00 | – | – | Cc1ncc(C(=O)Nc2cc(C(=O)Nc3cncc(C(F)(F)F)n3)c(F)cc2C)s1 [Example 33, N-[4-fluoro-2-methyl-5-[[6-(trifluoromethyl)pyrazin-2-yl]carbamoyl]phenyl]-2-methyl-1,3-thiazole-5-carboxamide]
8 | > 7.00 | 6.00 to 7.00 | > 7.00 | – | – | Nc1ncc(C(=O)Nc2cc(C(=O)Nc3ccc(CC(F)(F)F)cn3)c(F)cc2F)s1 [Example 221, 2-Amino-N-[2,4-difluoro-5-[[5-(2,2,2-trifluoroethyl)pyridin-2-yl]carbamoyl]phenyl]-1,3-thiazole-5-carboxamide]
9 | > 7.00 | < 6.00 | > 7.00 | – | – | Cc1ncc(C(=O)Nc2cc(C(=O)Nc3cncc(CC(F)(F)F)c3)c(F)cc2C)s1 [Example 81, N-[4-fluoro-2-methyl-5-[[5-(2,2,2-trifluoroethyl)pyridin-3-yl]carbamoyl]phenyl]-2-methyl-1,3-thiazole-5-carboxamide]
10 | > 7.00 | < 6.00 | 6.00 to 7.00 | – | – | Cc1ncc(C(=O)Nc2cc(C(=O)Nc3ccnc(C(F)F)c3)c(F)cc2C)s1 [Example 22, N-[5-[[2-(Difluoromethyl)pyridin-4-yl]carbamoyl]-4-fluoro-2-methylphenyl]-2-methyl-1,3-thiazole-5-carboxamide]
11 | > 7.00 | < 6.00 | > 7.00 | – | – | Cc1ncc(C(=O)Nc2cc(C(=O)Nc3cncc(C(F)F)c3)c(F)cc2C)s1 [Example 76, N-[5-[[5-(difluoromethyl)pyridin-3-yl]carbamoyl]-4-fluoro-2-methylphenyl]-2-methyl-1,3-thiazole-5-carboxamide]
12 | > 7.00 | – | > 7.00 | – | – | Cc1ncc(C(=O)Nc2cc(C(=O)Nc3ccc(C(F)F)nc3)c(F)cc2C)s1 [Example 54, N-[5-[[6-(difluoromethyl)pyridin-3-yl]carbamoyl]-4-fluoro-2-methylphenyl]-2-methyl-1,3-thiazole-5-carboxamide]
13 | > 7.00 | < 6.00 | – | 6.00 to 7.00 | 6.00 to 7.00 | Cc1cc(F)c(C(=O)NCc2ccn(C(C)C)n2)cc1NC(=O)c1cnc(N)s1 [Example 253, 2-Amino-N-[4-fluoro-2-methyl-5-[(1-propan-2-ylpyrazol-3-yl)methylcarbamoyl]phenyl]-1,3-thiazole-5-carboxamide]
14 | > 7.00 | 6.00 to 7.00 | – | 6.00 to 7.00 | > 7.00 | Cc1cc(F)c(C(=O)Nc2ccn(CC3CC3)n2)cc1NC(=O)c1cnc(N)s1 [Example 151, 2-Amino-N-[5-[[1-(cyclopropylmethyl)pyrazol-3-yl]carbamoyl]-4-fluoro-2-methylphenyl]-1,3-thiazole-5-carboxamide]
15 | > 7.00 | < 6.00 | – | < 6.00 | 6.00 to 7.00 | Cc1cc(F)c(C(=O)Nc2cc3n(n2)CCOC3)cc1NC(=O)c1cnc(N)s1 [Example 182, 2-Amino-N-[5-(6,7-dihydro-4H-pyrazolo [5,1-c][1,4]oxazin-2-ylcarbamoyl)-4-fluoro-2-methylphenyl]-1,3-thiazole-5-carboxamide]
16 | > 7.00 | < 6.00 | – | < 6.00 | < 6.00 | Cc1cc(F)c(C(=O)Nc2ccn(CCO)n2)cc1NC(=O)c1cnc(N)s1 [Example 144, 2-Amino-N-[4-fluoro-5-[[1-(2-hydroxyethyl)pyrazol-3-yl]carbamoyl]-2-methylphenyl]-1,3-thiazole-5-carboxamide]
17 | > 7.00 | < 6.00 | – | < 6.00 | 6.00 to 7.00 | Cc1cc(F)c(C(=O)Nc2ccc(OC3CC3)cn2)cc1NC(=O)c1cnc(NC(=O)[C@@H]2CCOC2)s1 [Example 107, N-[5-[(5-cyclopropyloxypyridin-2-yl)carbamoyl]-4-fluoro-2-methylphenyl]-2-[[(3R)-oxolane-3-carbonyl]amino]-1,3-thiazole-5-carboxamide]
18 | 6.00 to 7.00 | < 6.00 | – | < 6.00 | < 6.00 | Cc1cc(F)c(C(=O)Nc2nnc(C3CC3)[nH]2)cc1NC(=O)c1cnc(N)s1 [Example 176, 2-Amino-N-[5-[(5-cyclopropyl-4H-1,2,4-triazol-3-yl)carbamoyl]-4-fluoro-2-methylphenyl]-1,3-thiazole-5-carboxamide]
19 | > 7.00 | < 6.00 | – | < 6.00 | 6.00 to 7.00 | Cc1cc(F)c(C(=O)Nc2ccc(OC3CC3)cn2)cc1NC(=O)c1cnc(NC(=O)OC2CCC2)s1 [Example 106]
20 | > 7.00 | < 6.00 | – | < 6.00 | < 6.00 | Cc1cc(F)c(C(=O)Nc2ccc(OC3CC3)cn2)cc1NC(=O)c1cnc(NC(=O)[C@H]2CCOC2)s1 [Example 108, N-[5-[(5-cyclopropyloxypyridin-2-yl)carbamoyl]-4-fluoro-2-methylphenyl]-2-[[(3S)-oxolane-3-carbonyl]amino]-1,3-thiazole-5-carboxamide]
